Columns and labels:
DCN1 [1] = target: T1, DCN1 (Homo sapiens (Human), UniProt Q96GG9); experiment: Competitive FP binding assay; conditions: read-out: Binding affinity to DCN1 (IC50)
Method: The Fluorescence Polarization (FP) competitive binding assays were performed to accurately determine the binding affinities of our DCN1 inhibitors. A novel FAM labeled fluorescent probe compound (46) was designed and synthesized based on one of our potent small molecule DCN1 inhibitors. Equilibrium dissociation constants (Kd) values of 46 to both DCN1 and DCN2 proteins were determined from protein saturation experiments by monitoring the total FP values of mixtures composed with the fluorescent probe at a fixed concentration and proteins with increasing concentrations up to full saturation. Serial dilutions of proteins were mixed with 46 to a final volume of 200 μl in the assay buffer (100 mM phosphate buffer, pH=6.5, with 0.02% Tween-20 and 2% DMSO). Final probe concentration was 5 nM for both assays. Plates were incubated at room temperature for 30 minutes with gentle shaking to assure equilibrium. FP values in millipolarization units (mP) were measured using the Infinite M-1000 plate reader (Tecan U.S., Research Triangle Park, N.C.) in Microfluor 1 96-well, black, round-bottom plates (Thermo Scientific, Waltham, Mass.) at an excitation wavelength of 485 nm and an emission wavelength of 530 nm. Kd values of 46 were calculated by fitting the sigmoidal dose-dependent FP increases as a function of protein concentrations using Graphpad Prism 6.0 software (Graphpad Software, San Diego, Calif.).
(§1) Human DCN1 (residues 58-259) were cloned into a pDEST17 plasmid containing an N-terminal His6 tag. DCN2 (residues 62-259), DCN3 (residues 86-304), DCN4 (residues 102-292) and DCN5 (residues 47-237) were cloned into an N-terminal His6-TEV expression vector. Pure proteins were derived from the same expression and purification protocols. Plasmids were transformed into Rosetta2 cells, the cells were grown in Terrific Broth at 37° C. to an O.D.600>1.0 and induced with 0.4 mM Isopropyl β-D-1-thiogalactopyranoside overnight at 20° C. The pelleted cells were resuspended in lysis buffer containing 25 mM Tris-HCl, pH 7.5, 200 mM NaCl and protease inhibitors, sonicated and centrifuged at 34,000×g for 45 minutes to remove debris. Cleared lysate was incubated with Ni-NTA resin (Qiagen) prewashed with lysis buffer, for 1 hr at 4° C. The matrix was loaded into a column then washed with 25 mM Tris-HCl, pH 7.5, 200 mM NaCl and 10 mM imidazole. Protein was eluted with 25 mM Tris-HCl, pH 7.5, 200 mM NaCl and 300 mM imidazole, concentrated and applied to a Superdex 75 (GE Healthcare) column pre-equilibrated with 25 mM Tris pH 7.5, 200 mM NaCl and 1 mM DTT. For DCN2-5, the N-terminal His6 tag was removed prior to gel filtration. Tag removal was achieved through incubation with TEV protease during overnight dialysis against 25 mM Tris pH 7.5, 200 mM NaCl and 1 mM DTT and a second Ni-NTA column. DCN2-5 proteins were stored at −80° C. in 1 mg/mL fractions containing 5% glycerol. The uncleaved DCN1 protein was stored at −80° C. without glycerol.

DCN1 [2] = target: T1, DCN1; experiment: Mass spectroscopy of DCN1 protein incubations; format: binding; conditions: for ablation of the parent peak in the mass spectrum / major new peak (protein-inhibitor adduct) / mass of new peak (DCN1 plus inhibitor, loss of morpholinyl group): DCN1 380 μM, 1.2 fold excess of inhibitor, 4° C. overnight, Q-TOF; for difference from DCN1 Apo-protein mass: FIG. 2; for formation of a covalent bond with DCN1 protein: FIG. 2, mass-spectroscopic analyses
Method: as §1
Recombinant DCN1 protein (380 μM) in 25 mM Tris 7.5, 200 mM NaCl, 1 mM DTT buffer was incubated with a 1.2 fold excess of selected DCN1 inhibitors at 4° C. for overnight. The reaction mixture was diluted with tenfold with water, and the protein was analyzed by Q-TOF mass spectroscopy. DCN1 untreated, or treated with previously described non-covalent inhibitors produced an isotope deconvoluted peak at 26.085.75 amus. Incubation under the described conditions with Examples 4, 7 and 9 led to 95-99% ablation of the parent peak in the mass spectrum, with a major (>90%) new peak appearing at 26588.96 amu (Dalton) for Example 4, 26604.34 amu for Example 7, and 26596.18 amu for Example 9. In each case this corresponds to addition of the inhibitor to the protein, coupled with the loss of the morpholinyl group, from the initial Michael adduct between the protein and the small molecule.

Nrf2 protein = experiment: Effect of covalent DCN1 inhibitors on Nrf2 protein level in mouse liver; format: in vivo; conditions: single dose 25 mg/kg IP, C57BL/6 male mice, western blotting
Method: Liver tissues harvested from C57BL/6 male mice treated with Example 9 (DI-1548) at 25 mg/kg via intraperitoneal (IP) injection were lysed with RIAP buffer. The expression level of Nrf2 protein was examined by western blotting. GAPDH was used a loading control.
The effect of several representative covalent DCN1 inhibitors (Examples 9, 21 and 22) on the level of Nrf2 protein in mouse liver was examined. Mice were administered with a single dose of Example 9 (DI-1548), Example 21 (DI-1859) or Example 22 (DI-1860) at 25 mg/kg, or phosphate-buffered saline (PBS), all via intraperitoneal (IP) injection. Mice were sacrificed at different time points and liver tissues were harvested for western blotting analysis for Nrf2 protein level. The data are shown in FIGS. 5, 6 and 7, respectively.

[3] = tested on: APAP-induced liver injury; experiment: Protection of mice from acetaminophen-induced liver injury (blood ALT activity); format: in vivo
Method: To induce acute liver injury, mice were administered a large dose (400 mg/kg) of APAP via intraperitoneal (I.P.) injection and were sacrificed 48 hr later. To examine the protective effect of DI-1859 (pretreatment), animals were I.P. injected with DI-1859 for three consecutive days (one day before APAP injection, three hours before APAP injection and a third dose on the next day after APAP injection). To examine the restorative effect of DI-1859 (post-treatment), mice were treated with DI-1859 three hours after APAP administration followed by two additional doses on the following two days. Two control groups of mice were treated with phosphate-buffered saline (PBS) or DI-1859, respectively. Blood sample collection was performed on each day.
The activity of alanine aminotransferase (ALT) in blood is a commonly used measurement clinically as a part of a diagnostic evaluation of liver injury, to determine liver health. Therefore, the blood ALT activity was measured using an ALT reagent set (Pointe Scientific Inc., Canton, Mich.). […] Furthermore, post-treatment of APAP with DI-1859 at 50 mg/kg reduces the APAP-induced elevated ALT level by approximately 50%.

[4] = tested on: neddylation of cullin 3 and NRF2 protein in HepG2 cells; experiment: Western blotting of cullin neddylation and NRF2 in HepG2 cells; format: cell-based; conditions: 20 h, compared with non-covalent inhibitor B
Method: HepG2 cells were treated as indicated concentrations for 20 h, NRF2, Cullin 1, and Cullin 3 proteins were examined by western blotting. GAPDH was used as a loading control.
Treated cells were lysed by RIPA buffer supplemented with protease inhibitor. The expression level of indicated proteins was examined by western blotting analysis. GAPDH was used as a loading control. Antibodies were purchased: Cullin 1 (sc-11384), Cullin2 (sc-10781), CullinS (sc-13014) and Cullin7 (sc-134565) from Santa Cruz Biotech. (Santa Cruz, Calif.); Cullin 4A (PA5-14542), Cullin 4B (PA5-35239), Cullin9 (PA5-20277), DCN2 (DCUNID2, PA5-31607) and DCN3 (DCUNID3, PA5-44000) from ThermoFisher Scientific (Wayne, Mich.); Cullin 3 (2759), NRF2 (12721), HO-1 (70081), NQO1 (3187), Cyclin E (4129), Bim (2819), Keap1 (8047) and UBC12 (4913) from Cell Signaling Technology (Boston, Mass.); DCN1 (GWB-E3D700) from GenWay Biotech (San Diego, Calif.). Results are representative of three independent experiments.

T1 sequence (Q96GG9 58-259): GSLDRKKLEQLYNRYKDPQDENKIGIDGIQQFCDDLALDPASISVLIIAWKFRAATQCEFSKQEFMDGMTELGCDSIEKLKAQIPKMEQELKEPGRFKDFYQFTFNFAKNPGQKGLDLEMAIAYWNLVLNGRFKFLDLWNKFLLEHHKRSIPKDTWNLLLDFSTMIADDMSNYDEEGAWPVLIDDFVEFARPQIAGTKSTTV

Structure (SMILES) | IC50 (DCN1 [1]) [nM] | ablation of the parent peak in the mass spectrum (DCN1 [2]) | major new peak (protein-inhibitor adduct) (DCN1 [2]) [%] | mass of new peak (DCN1 plus inhibitor, loss of morpholinyl group) (DCN1 [2]) [amu] | difference from DCN1 Apo-protein mass (DCN1 [2]) [Da] | formation of a covalent bond with DCN1 protein (DCN1 [2]) | level of Nrf2 protein in mouse liver tissue (Nrf2 protein) | also measured
C=C(CN1CCOCC1)C(=O)NC[C@@H](NC(=O)[C@H](Cc1nc2ccc(Cl)cc2s1)NC(=O)CC)C1CCCCC1 [Example 4, N—((S)-2-((S)-3-(6-chlorobenzo[d]thiazol-2-yl)-2-propionamidopropanamido)-2-cyclohexylethyl)-2-(morpholinomethyl)acrylamide] | 41.6 | 95-99% | > 90 | 26588.96 | 503.21 | formation of a covalent bond | – | –
C=C(CN(CC)CC)C(=O)NC[C@@H](NC(=O)[C@H](Cc1nc2ccc(C(C)C)cc2s1)NC(=O)CC)C1CCCCC1 [Example 22, N—((S)-2-cyclohexyl-2-((S)-3-(6-isopropylbenzo[d]thiazol-2-yl)-2-propionamidopropanamido)ethyl)-2-((diethylamino)methyl)acrylamide] | < 150 | – | – | – | – | – | effectively increases | –
C=C(CN(C)C)C(=O)NC[C@@H](NC(=O)[C@H](Cc1nc2ccc(C(C)C)cc2s1)NC(=O)CC)C1CCCCC1 [Example 21, N—((S)-2-cyclohexyl-2-((S)-3-(6-isopropylbenzo[d]thiazol-2-yl)-2-propionamidopropanamido)ethyl)-2-((dimethylamino)methyl)acrylamide] | < 150 | – | – | – | – | – | effectively increases | reduction of APAP-induced elevated ALT level, post-treatment ([3]; APAP 400 mg/kg I.P., post-treatment at 50 mg/kg): approximately 50%; elevation of ALT activity by APAP, pretreatment ([3]; APAP 400 mg/kg I.P., pretreatment at 50 mg/kg): completely prevents; elevated ALT activity induced by APAP, pretreatment ([3]; APAP 400 mg/kg I.P., pretreatment, dose-dependent): effectively reduces; APAP-induced alanine aminotransferase (ALT) increase ([3]; pre- or post-treatment, APAP, FIG. 8): effectively blocks or reduces
C=C(CN1CCOCC1)C(=O)NC[C@@H](NC(=O)[C@H](Cc1nc2ccc(C(C)C)cc2s1)NC(=O)CC)C1CCCCC1 [Example 9, N—((S)-2-((S)-3-(6-prop-2-ypbenzo[d]thiazol-2-yl)-2-propionamidopropanamido)-2-cyclohexylethyl)-2-(morpholinomethyl)acrylamide] | 66.5 | 95-99% | > 90 | 26596.18 | 510.81 | formation of a covalent bond | effectively increases | increasing the level of NRF2 protein [4]: much stronger biological activity; inhibition of neddylation of cullin 3 [4]: much stronger biological activity
C=C(CN1CCOCC1)C(=O)NC[C@H](Cc1ccccc1)NC(=O)[C@H](Cc1nc2ccc(C(C)C)cc2s1)NC(=O)CC [Example 7, N—((S)-2-((S)-3-(6-prop-2-ylbenzo[d]thiazol-2-yl)-2-propionamidopropanamido)-3-phenylpropyl)-2-(morpholinomethyl)acrylamide] | 37.4 | 95-99% | > 90 | 26604.34 | 518.59 | formation of a covalent bond | – | –
C=CC(=O)NC[C@H](Cc1cccnc1)NC(=O)[C@H](Cc1nc2ccc(C(C)C)cc2s1)NC(=O)CC [Example 32, N—((S)-2-((S)-3-(6-isopropylbenzo[d]thiazol-2-yl)-2-propionamidopropanamido)-3-(pyridin-3-yl)propyl)acrylamide] | < 150 | – | – | – | – | – | – | –
C=C(CN1CCOCC1)C(=O)NC[C@H](Cc1cccnc1)NC(=O)[C@H](Cc1nc2ccc(C(C)C)cc2s1)NC(=O)CC [Example 34, N—((S)-2-((S)-3-(6-isopropylbenzo[d]thiazol-2-yl)-2-propionamidopropanamido)-3-(pyridin-3-yl)propyl)-2-(morpholinomethyl)acrylamide] | < 150 | – | – | – | – | – | – | –
CCC(=O)N[C@@H](Cc1nc2ccc(Cl)cc2s1)C(=O)N[C@H](CNC(=O)/C=C/CN(C)C)Cc1ccccc1 [Example 2, (E)-N—((S)-2-((S)-3-(6-chlorobenzo[d]thiazol-2-yl)-2-propionamidopropanamido)-3-phenylpropyl)-4-(dimethylamino)but-2-enamide] | 153 | – | – | – | – | – | – | –
